From publication PMC8822125, “RW-BP100-4D, a Promising Antimicrobial Candidate With Broad-Spectrum Bactericidal Activity” (Frontiers in Microbiology, 2022)
≈ marks a conversion by molar mass, not a printed value. Where a SMILES comes first, the peptide text is derived from it.

Columns and labels:
[1] = system: Staphylococcus aureus ATCC29213; experiment: MIC/MBC, broth microdilution; assay type: cell-based; details: Table 1; broth microdilution CLSI M100-S25, MH broth, 37°C, 18 h, three independent repeats
[2] = system: RAW264.7 cells; details: peptide 150 μg/mL, 24 h, WST-1, mean ± SD, three repeats
[3] = system: MAC-T cells; details: peptide 150 μg/mL, 24 h, WST-1, mean ± SD, three repeats
[4] = system: sheep red blood cells; details: sheep red blood cells in PBS, 37°C, 1 h, OD576, relative to melittin, mean ± SD, three repeats; for Hemolytic rate, 50 μg/mL: 50 μg/mL peptide; for Hemolytic rate, 100 μg/mL: 100 μg/mL peptide; for Hemolytic rate, 150 μg/mL: 150 μg/mL peptide; for Hemolytic rate, 300 μg/mL: 300 μg/mL peptide;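 as to all read-outs here: hemolysis expressed in % from supernatant absorbance, with PBS-treated cells as 0% baseline and melittin as 100%, peptide mixed 1:1 with an 8% v/v erythrocyte suspension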
[5] = system: Escherichia coli ATCC25922; details: Table 1; broth microdilution CLSI M100-S25, MH broth, 37°C, 18 h, three independent repeats
[6] = system: various microorganisms; experiment: MIC/MBC, summary statements over several strains; assay type: cell-based; details: summary of Table 1

CC[C@H](C)[C@H](NC(=O)[C@H](CCCNC(=N)N)NC(=O)[C@@H](CCCNC(=N)N)NC(=O)[C@H](Cc1ccccc1)NC(=O)[C@H](CC(C)C)NC(=O)[C@H](CCCNC(=N)N)NC(=O)[C@@H](N)CCCNC(=N)N)C(=O)N[C@@H](CC(C)C)C(=O)N[C@@H](CCCNC(=N)N)C(=O)N[C@@H](Cc1c[nH]c2ccccc12)C(=O)N[C@@H](CC(C)C)C(N)=O [RW-BP100-5D] (HELM PEPTIDE1{R.R.L.F.[dR].R.I.L.R.W.L.[am]}$$$$V2.0)
MIC Staphylococcus aureus ATCC29213 [1]: 6 µg/mL (≈ 3.79 µM) | Cell survival rate, RAW264.7 [2]: 39.05 ± 1.65% | Cell survival rate, MAC-T [3]: 77.84 ± 5.63% | Hemolytic rate, 50 μg/mL [4]: 1.26 ± 0.54% | Hemolytic rate, 100 μg/mL [4]: 2.49 ± 0.72% | Hemolytic rate, 150 μg/mL [4]: 29.72 ± 0.94% | Hemolytic rate, 300 μg/mL [4]: 51.41 ± 4.64% | MIC Escherichia coli ATCC25922 [5]: 6 µg/mL (≈ 3.79 µM) | MIC against S. aureus ATCC29213 and E. coli ATCC25922 (both strains together) [6]: 3 to 12 µg/mL

CC[C@H](C)[C@H](NC(=O)[C@H](CCCNC(=N)N)NC(=O)[C@H](CCCNC(=N)N)NC(=O)[C@H](Cc1ccccc1)NC(=O)[C@H](CC(C)C)NC(=O)[C@H](CCCNC(=N)N)NC(=O)[C@@H](N)CCCNC(=N)N)C(=O)N[C@@H](CC(C)C)C(=O)N[C@@H](CCCNC(=N)N)C(=O)N[C@H](Cc1c[nH]c2ccccc12)C(=O)N[C@@H](CC(C)C)C(N)=O [RW-BP100-10D] (HELM PEPTIDE1{R.R.L.F.R.R.I.L.R.[dW].L.[am]}$$$$V2.0)
MIC Staphylococcus aureus ATCC29213 [1]: 50 µg/mL (≈ 31.6 µM) | Cell survival rate, RAW264.7 [2]: 92.19 ± 6.32% | Cell survival rate, MAC-T [3]: 94.41 ± 4.26% | Hemolytic rate, 50 μg/mL [4]: 0.31 ± 0.37% | Hemolytic rate, 100 μg/mL [4]: 1.28 ± 0.19% | Hemolytic rate, 150 μg/mL [4]: 19.20 ± 2.16% | Hemolytic rate, 300 μg/mL [4]: 45.08 ± 4.70% | MIC Escherichia coli ATCC25922 [5]: 50 µg/mL (≈ 31.6 µM)

CC[C@H](C)[C@H](NC(=O)[C@H](CCCNC(=N)N)NC(=O)[C@H](CCCNC(=N)N)NC(=O)[C@H](Cc1ccccc1)NC(=O)[C@H](CC(C)C)NC(=O)[C@H](CCCNC(=N)N)NC(=O)[C@@H](N)CCCNC(=N)N)C(=O)N[C@H](CC(C)C)C(=O)N[C@@H](CCCNC(=N)N)C(=O)N[C@@H](Cc1c[nH]c2ccccc12)C(=O)N[C@@H](CC(C)C)C(N)=O [RW-BP100-8D] (HELM PEPTIDE1{R.R.L.F.R.R.I.[dL].R.W.L.[am]}$$$$V2.0)
MIC Staphylococcus aureus ATCC29213 [1]: 12 µg/mL (≈ 7.58 µM) | Cell survival rate, RAW264.7 [2]: 20.30 ± 3.26% | Cell survival rate, MAC-T [3]: 54.78 ± 2.65% | Hemolytic rate, 50 μg/mL [4]: 0.91 ± 0.38% | Hemolytic rate, 100 μg/mL [4]: 1.38 ± 0.58% | Hemolytic rate, 150 μg/mL [4]: 26.19 ± 0.10% | Hemolytic rate, 300 μg/mL [4]: 50.11 ± 3.17% | MIC Escherichia coli ATCC25922 [5]: 12 µg/mL (≈ 7.58 µM) | MIC against S. aureus ATCC29213 and E. coli ATCC25922 (both strains together) [6]: 3 to 12 µg/mL

CC[C@H](C)[C@H](NC(=O)[C@H](CCCNC(=N)N)NC(=O)[C@H](CCCNC(=N)N)NC(=O)[C@H](Cc1ccccc1)NC(=O)[C@H](CC(C)C)NC(=O)[C@@H](CCCNC(=N)N)NC(=O)[C@@H](N)CCCNC(=N)N)C(=O)N[C@@H](CC(C)C)C(=O)N[C@@H](CCCNC(=N)N)C(=O)N[C@@H](Cc1c[nH]c2ccccc12)C(=O)N[C@@H](CC(C)C)C(N)=O [RW-BP100-2D] (HELM PEPTIDE1{R.[dR].L.F.R.R.I.L.R.W.L.[am]}$$$$V2.0)
MIC Staphylococcus aureus ATCC29213 [1]: 25 µg/mL (≈ 15.8 µM) | Cell survival rate, RAW264.7 [2]: 6.83 ± 5.69% | Cell survival rate, MAC-T [3]: 63.07 ± 3.23% | Hemolytic rate, 50 μg/mL [4]: 4.83 ± 1.08% | Hemolytic rate, 100 μg/mL [4]: 5.99 ± 0.79% | Hemolytic rate, 150 μg/mL [4]: 39.16 ± 1.75% | Hemolytic rate, 300 μg/mL [4]: 62.12 ± 6.27% | MIC Escherichia coli ATCC25922 [5]: 12 µg/mL (≈ 7.58 µM)

CC[C@H](C)[C@H](NC(=O)[C@H](CCCNC(=N)N)NC(=O)[C@H](CCCNC(=N)N)NC(=O)[C@H](Cc1ccccc1)NC(=O)[C@@H](CC(C)C)NC(=O)[C@H](CCCNC(=N)N)NC(=O)[C@@H](N)CCCNC(=N)N)C(=O)N[C@@H](CC(C)C)C(=O)N[C@@H](CCCNC(=N)N)C(=O)N[C@@H](Cc1c[nH]c2ccccc12)C(=O)N[C@@H](CC(C)C)C(N)=O [RW-BP100-3D] (HELM PEPTIDE1{R.R.[dL].F.R.R.I.L.R.W.L.[am]}$$$$V2.0)
MIC Staphylococcus aureus ATCC29213 [1]: 25 µg/mL (≈ 15.8 µM) | Cell survival rate, RAW264.7 [2]: 7.69 ± 7.89% | Cell survival rate, MAC-T [3]: 50.63 ± 2.36% | Hemolytic rate, 50 μg/mL [4]: 3.49 ± 0.76% | Hemolytic rate, 100 μg/mL [4]: 4.04 ± 0.20% | Hemolytic rate, 150 μg/mL [4]: 38.13 ± 3.12% | Hemolytic rate, 300 μg/mL [4]: 55.73 ± 5.27% | MIC Escherichia coli ATCC25922 [5]: 50 µg/mL (≈ 31.6 µM)

CC[C@@H](C)[C@@H](NC(=O)[C@H](CCCNC(=N)N)NC(=O)[C@H](CCCNC(=N)N)NC(=O)[C@H](Cc1ccccc1)NC(=O)[C@H](CC(C)C)NC(=O)[C@H](CCCNC(=N)N)NC(=O)[C@@H](N)CCCNC(=N)N)C(=O)N[C@@H](CC(C)C)C(=O)N[C@@H](CCCNC(=N)N)C(=O)N[C@@H](Cc1c[nH]c2ccccc12)C(=O)N[C@@H](CC(C)C)C(N)=O [RW-BP100-7D] (HELM PEPTIDE1{R.R.L.F.R.R.[dI].L.R.W.L.[am]}$$$$V2.0)
MIC Staphylococcus aureus ATCC29213 [1]: 25 µg/mL (≈ 15.8 µM) | Cell survival rate, RAW264.7 [2]: 93.74 ± 1.25% | Cell survival rate, MAC-T [3]: 96.41 ± 3.75% | Hemolytic rate, 50 μg/mL [4]: 0.53 ± 1.12% | Hemolytic rate, 100 μg/mL [4]: 1.11 ± 0.19% | Hemolytic rate, 150 μg/mL [4]: 16.17 ± 3.36% | Hemolytic rate, 300 μg/mL [4]: 45.65 ± 5.13% | MIC Escherichia coli ATCC25922 [5]: 25 µg/mL (≈ 15.8 µM)

CC[C@H](C)[C@H](NC(=O)[C@H](CCCNC(=N)N)NC(=O)[C@H](CCCNC(=N)N)NC(=O)[C@H](Cc1ccccc1)NC(=O)[C@H](CC(C)C)NC(=O)[C@H](CCCNC(=N)N)NC(=O)[C@H](N)CCCNC(=N)N)C(=O)N[C@@H](CC(C)C)C(=O)N[C@@H](CCCNC(=N)N)C(=O)N[C@@H](Cc1c[nH]c2ccccc12)C(=O)N[C@@H](CC(C)C)C(N)=O [RW-BP100-1D] (HELM PEPTIDE1{[dR].R.L.F.R.R.I.L.R.W.L.[am]}$$$$V2.0)
MIC Staphylococcus aureus ATCC29213 [1]: 25 µg/mL (≈ 15.8 µM) | Cell survival rate, RAW264.7 [2]: 9.55 ± 2.45% | Cell survival rate, MAC-T [3]: 52.71 ± 5.68% | Hemolytic rate, 50 μg/mL [4]: 4.61 ± 0.47% | Hemolytic rate, 100 μg/mL [4]: 5.49 ± 0.23% | Hemolytic rate, 150 μg/mL [4]: 39.81 ± 0.20% | Hemolytic rate, 300 μg/mL [4]: 52.88 ± 3.06% | MIC Escherichia coli ATCC25922 [5]: 12 µg/mL (≈ 7.58 µM)

CC[C@H](C)[C@H](NC(=O)[C@H](CCCNC(=N)N)NC(=O)[C@H](CCCNC(=N)N)NC(=O)[C@H](Cc1ccccc1)NC(=O)[C@H](CC(C)C)NC(=O)[C@H](CCCNC(=N)N)NC(=O)[C@@H](N)CCCNC(=N)N)C(=O)N[C@@H](CC(C)C)C(=O)N[C@H](CCCNC(=N)N)C(=O)N[C@@H](Cc1c[nH]c2ccccc12)C(=O)N[C@@H](CC(C)C)C(N)=O [RW-BP100-9D] (HELM PEPTIDE1{R.R.L.F.R.R.I.L.[dR].W.L.[am]}$$$$V2.0)
MIC Staphylococcus aureus ATCC29213 [1]: 25 µg/mL (≈ 15.8 µM) | Cell survival rate, RAW264.7 [2]: 91.33 ± 5.63% | Cell survival rate, MAC-T [3]: 92.50 ± 2.36% | Hemolytic rate, 50 μg/mL [4]: 0.63 ± 0.24% | Hemolytic rate, 100 μg/mL [4]: 1.53 ± 0.09% | Hemolytic rate, 150 μg/mL [4]: 18.14 ± 0.20% | Hemolytic rate, 300 μg/mL [4]: 45.18 ± 2.41% | MIC Escherichia coli ATCC25922 [5]: 25 µg/mL (≈ 15.8 µM)
